Laboratory results from US20110009403A1, “2-MORPHOLINYLPURINES AS INHIBITORS OF PI3K” (S*BIO Pte Ltd., priority 2007, published 2011).
pIC50: −log10 of the molar value.

Key:
[1] = target: mTOR (Homo sapiens, UniProt P42345); assay: mTOR assay (phosphorylation of 4eBP1, [γ33P]-ATP filter plate); type: biochemical; conditions: 10 μM ATP, 1 hour at room temperature
Procedure: Truncated mTOR kinase and His-tagged 4eBP1 were produced in-house. [γ^33P]-ATP was purchased from Amersham (GE Healthcare). All chemicals, unless otherwise stated, were from Sigma-Aldrich.
Phosphorylation assays were initially performed in a final volume of 20 μL in 384-well polypropylene plate (Greiner). Compounds were typically tested over the range from 100 μM to 0.006 μM, in 8 step dilutions, in duplicate. 10 μL/well of 2× Enzyme-Substrate solution (1.5 μg/mL mTOR, 40 μg/mL 4eBP1 in 1× assay buffer: 10 mM Hepes pH 7.5, 50 mM NaCl and 10 mM MnCl2) were first added to the sample plate containing 1 μL/well of test compound in neat DMSO. The reaction was initiated by adding 10 μL/well of 20 μM ATP solution (final assay concentration 10 μM ATP and 0.4 μCi/well of [γ^33P]-ATP). After 1 hour incubation at room temperature, the reaction was terminated with 40 μL/well of 20 mM EDTA/1 mM ATP solution.
50 μL/well of the stopped reaction mix was then transferred to 384-well MultiScreenHTS-PH filter plate (Millipore) pre-added with 50 μL/well of 1% phosphoric acid. The plate was washed 4 times with 120 μL/well of 0.5% phosphoric acid via vacuum filtration. Finally, 10 μL/well of Optiphase™ SuperMix liquid scintillation cocktail (Perkin Elmer) was added. After minimum 1 hour of incubation, counting was performed in a Wallac MicroBeta TriLux scintillation counter using coincidence counting mode with crosstalk correction.

[2] = target: T1, PI3K p110α/p85 (Homo sapiens, UniProt P42336); assay: PI3K assay ([γ33P]ATP, PtdIns/PtdSer coated plates); type: biochemical; conditions: 2 μM ATP, 1 hour at RT; read-out: IC50 (PI3Kα)
T1 construct: made in house
T1 sequence (P42336 whole entry): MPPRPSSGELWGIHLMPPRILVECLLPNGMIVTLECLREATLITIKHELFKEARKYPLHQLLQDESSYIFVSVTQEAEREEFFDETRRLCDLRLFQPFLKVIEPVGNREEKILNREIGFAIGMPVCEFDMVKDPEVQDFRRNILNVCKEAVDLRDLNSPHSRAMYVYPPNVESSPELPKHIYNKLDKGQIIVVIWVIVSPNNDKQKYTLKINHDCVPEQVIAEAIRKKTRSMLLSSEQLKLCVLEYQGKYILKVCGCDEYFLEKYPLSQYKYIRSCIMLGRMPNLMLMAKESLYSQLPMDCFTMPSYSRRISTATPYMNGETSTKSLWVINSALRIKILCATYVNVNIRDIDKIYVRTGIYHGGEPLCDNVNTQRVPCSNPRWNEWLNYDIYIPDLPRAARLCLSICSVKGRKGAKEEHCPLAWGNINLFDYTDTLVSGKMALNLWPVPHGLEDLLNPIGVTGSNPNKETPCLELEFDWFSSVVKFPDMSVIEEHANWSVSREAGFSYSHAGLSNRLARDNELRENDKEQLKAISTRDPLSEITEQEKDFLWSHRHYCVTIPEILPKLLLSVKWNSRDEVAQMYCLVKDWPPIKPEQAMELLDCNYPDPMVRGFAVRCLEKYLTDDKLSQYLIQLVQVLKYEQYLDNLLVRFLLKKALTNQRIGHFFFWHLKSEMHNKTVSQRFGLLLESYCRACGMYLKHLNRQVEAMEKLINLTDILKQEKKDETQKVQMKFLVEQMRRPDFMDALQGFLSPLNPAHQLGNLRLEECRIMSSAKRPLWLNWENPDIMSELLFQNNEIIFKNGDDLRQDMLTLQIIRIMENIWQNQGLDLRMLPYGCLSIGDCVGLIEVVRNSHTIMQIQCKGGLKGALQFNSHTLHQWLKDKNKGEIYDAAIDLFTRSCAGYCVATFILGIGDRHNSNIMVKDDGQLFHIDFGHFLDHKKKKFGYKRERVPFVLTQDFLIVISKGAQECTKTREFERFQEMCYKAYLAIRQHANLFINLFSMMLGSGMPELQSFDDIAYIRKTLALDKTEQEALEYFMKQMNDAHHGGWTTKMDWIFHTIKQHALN
T1 sequence (P27986 whole entry partner): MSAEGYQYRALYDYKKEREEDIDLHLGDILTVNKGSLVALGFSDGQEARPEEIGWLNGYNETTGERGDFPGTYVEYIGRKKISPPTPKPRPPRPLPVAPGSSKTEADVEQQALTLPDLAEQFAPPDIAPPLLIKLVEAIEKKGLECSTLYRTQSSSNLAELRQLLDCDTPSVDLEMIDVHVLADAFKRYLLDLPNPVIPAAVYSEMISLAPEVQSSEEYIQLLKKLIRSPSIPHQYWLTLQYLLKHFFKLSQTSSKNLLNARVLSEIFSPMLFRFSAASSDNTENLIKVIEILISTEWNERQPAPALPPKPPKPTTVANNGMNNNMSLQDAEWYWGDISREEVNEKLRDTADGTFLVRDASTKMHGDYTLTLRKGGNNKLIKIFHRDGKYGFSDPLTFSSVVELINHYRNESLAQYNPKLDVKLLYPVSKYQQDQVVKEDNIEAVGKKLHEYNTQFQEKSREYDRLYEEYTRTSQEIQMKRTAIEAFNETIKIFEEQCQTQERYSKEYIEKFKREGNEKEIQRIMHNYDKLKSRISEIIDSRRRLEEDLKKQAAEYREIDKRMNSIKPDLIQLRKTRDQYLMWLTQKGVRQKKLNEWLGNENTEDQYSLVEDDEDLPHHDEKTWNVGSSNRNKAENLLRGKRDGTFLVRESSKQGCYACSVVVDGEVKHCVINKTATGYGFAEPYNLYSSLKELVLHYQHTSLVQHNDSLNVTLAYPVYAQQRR
Procedure: Recombinant PI3K p110α/p85 was prepared in-house. Phosphatidylinositol (PtdIns), phosphotidylserine (PtdSer) and all other unspecified chemicals were purchased from Sigma-Aldrich. [γ^33P]ATP and Optiphase scintillant were obtained from Perkin Elmer.
Assays were performed in a final assay volume of 25 μL in 384-well Maxisorp plates (Nunc). Compounds were tested at 8 concentrations in 3-fold serial dilution, generally starting from 10 μM. Maxisorp plates were coated with 20 μL/well of a 1:1 mixture of PtdIns and PtdSer [0.1 mg/mL each dissolved in chloroform:ethanol (3:7)] and left overnight in a fume hood at room temperature (RT) to dry.
The enzyme reaction was created by pipetting 5 μL/well of compound (in 2.5% DMSO), 10 μL/well of enzyme (0.5 μg/mL p110α+1 μg/mL p85), and 10 μL/well of 5 μM ATP with 5 μCi/mL [γ^33P]ATP in assay buffer (final concentrations: 0.2 μg/mL p110α, 2 μM ATP, […] [γ^33P]ATP in 1× assay buffer: 100 mM Tris-HCl pH 7.0, 200 mM NaCl, 8 mM MgCl2). The reaction was incubated for 1 hour at RT and terminated with 30 μL/well of 50 mM EDTA solution. The plate was then washed twice with TBS, dried, and added with 30 μL/well of scintillant before it was counted in a MicroBeta Trilux.

Sequence of mTOR (P42345 1382-2549 limits assumed): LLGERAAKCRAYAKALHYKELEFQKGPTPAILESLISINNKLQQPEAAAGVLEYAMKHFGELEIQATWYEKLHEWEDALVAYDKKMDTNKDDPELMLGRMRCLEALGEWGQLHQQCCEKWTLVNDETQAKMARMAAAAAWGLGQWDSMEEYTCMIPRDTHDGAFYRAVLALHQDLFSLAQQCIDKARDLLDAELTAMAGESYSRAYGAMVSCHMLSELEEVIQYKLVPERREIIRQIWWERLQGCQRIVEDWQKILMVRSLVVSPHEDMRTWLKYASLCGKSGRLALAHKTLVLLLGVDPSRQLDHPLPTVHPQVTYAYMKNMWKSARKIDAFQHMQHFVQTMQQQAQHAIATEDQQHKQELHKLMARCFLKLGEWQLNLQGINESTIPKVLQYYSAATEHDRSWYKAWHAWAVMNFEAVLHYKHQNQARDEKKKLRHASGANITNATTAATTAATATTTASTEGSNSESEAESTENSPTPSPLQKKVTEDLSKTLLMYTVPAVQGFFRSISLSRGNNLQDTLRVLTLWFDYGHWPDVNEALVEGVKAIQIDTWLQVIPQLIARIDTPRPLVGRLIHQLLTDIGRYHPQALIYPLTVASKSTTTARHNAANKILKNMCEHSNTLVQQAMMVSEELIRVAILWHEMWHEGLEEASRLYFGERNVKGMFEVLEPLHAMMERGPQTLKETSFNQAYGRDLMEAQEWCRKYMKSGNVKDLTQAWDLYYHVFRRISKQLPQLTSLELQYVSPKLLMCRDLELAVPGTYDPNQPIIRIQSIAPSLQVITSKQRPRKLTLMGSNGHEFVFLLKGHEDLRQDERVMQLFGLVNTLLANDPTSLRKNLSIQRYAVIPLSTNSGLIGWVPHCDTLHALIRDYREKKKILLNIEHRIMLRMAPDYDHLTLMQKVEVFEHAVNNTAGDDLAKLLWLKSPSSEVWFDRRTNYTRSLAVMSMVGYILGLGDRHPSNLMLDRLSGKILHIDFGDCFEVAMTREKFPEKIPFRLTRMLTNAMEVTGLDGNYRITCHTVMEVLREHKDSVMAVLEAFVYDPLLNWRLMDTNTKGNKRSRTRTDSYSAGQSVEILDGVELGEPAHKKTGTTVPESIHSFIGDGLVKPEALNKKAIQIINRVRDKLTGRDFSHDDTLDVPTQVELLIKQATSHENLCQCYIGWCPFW

Row | SMILES | pIC50 [1] | pIC50 [2]
1 | CCSc1nc2c(-c3cccc(O)c3)nc(N3CCOCC3)nc2n1C(C)CC (stereo not drawn) [Compound 119] | > 6.00 | > 6.00
2 | Oc1cccc(-c2nc(N3CCOCC3)nc3c2ncn3Cc2ccc3ccccc3c2)c1 [Compound 46] | > 6.00 | 
3 | CC(C)(C)OC(=O)N1CCC(n2cnc3c(-c4cccc5[nH]ccc45)nc(N4CCOCC4)nc32)C1 (stereo not drawn) [Compound 62] | 5.30 to 6.00 | > 6.00
4 | CCC(C)n1c(NCCOC)nc2c(-c3cccc(O)c3)nc(N3CCOCC3)nc21 (stereo not drawn) [Compound 128] | > 6.00 | > 6.00
5 | O=C(CCN1CCCCC1)N1CCC(n2cnc3c(-c4cccc5[nH]ccc45)nc(N4CCOCC4)nc32)CC1 [Compound 95] | > 6.00 | > 6.00
6 | CCC(C)n1c(-c2ccccc2)nc2c(-c3cccc(O)c3)nc(N3CCOCC3)nc21 (stereo not drawn) [Compound 126] | > 6.00 | > 6.00
7 | N#CCn1cnc2c(-c3cccc4[nH]ccc34)nc(N3CCOCC3)nc21 [Compound 80] | 5.30 to 6.00 | > 6.00
8 | Oc1cccc(-c2nc(N3CCOCC3)nc3c2ncn3C/C=C/c2ccccc2)c1 [Compound 45] | > 6.00 | 
9 | CCC(C)n1c(NC(C)C)nc2c(-c3cccc(O)c3)nc(N3CCOCC3)nc21 (stereo not drawn) [Compound 123, 3-(9-sec-Butyl-8-isopropylamino-2-morpholin-4-yl-9H-purin-6-yl)-phenol] | > 6.00 | > 6.00
10 | Oc1cccc(-c2nc(N3CCOCC3)nc3c2ncn3Cc2cccc(F)c2)c1 [Compound 15] | > 6.00 | > 6.00
11 | c1cc2ccc(-c3nc(N4CCOCC4)nc4c3ncn4CC3CC3)cc2[nH]1 [Compound 21] | > 6.00 | < 5.30
12 | N#CCn1cnc2c(-c3ccc(O)nc3)nc(N3CCOCC3)nc21 [Compound 139] | < 5.30 | < 5.30
13 | Oc1cccc(-c2nc(N3CCOCC3)nc3c2ncn3CCOc2ccccc2)c1 [Compound 44] | > 6.00 | > 6.00
14 | Nc1ccc(-c2nc(N3CCOCC3)nc3c2ncn3Cc2ccccc2)cc1N [Compound 38] | 5.30 to 6.00 | < 5.30
15 | c1cc(-c2nc(N3CCOCC3)nc3c2ncn3C2CCOC2)c2cc[nH]c2c1 (stereo not drawn) [Compound 110] | > 6.00 | > 6.00
16 | O=C(Cn1cnc2c(-c3cccc(O)c3)nc(N3CCOCC3)nc21)N1CCCC1 [Compound 75, 2-(6-(3-hydroxyphenyl)-2-morpholino-9H-purin-9-yl)-1-(pyrrolidin-1-yl)ethanone] | > 6.00 | > 6.00
17 | O=C(Cn1cnc2c(-c3cccc(O)c3)nc(N3CCOCC3)nc21)N1CCOCC1 [Compound 82] | 5.30 to 6.00 | > 6.00
18 | N#Cc1cccc(Cn2cnc3c(-c4cccc(O)c4)nc(N4CCOCC4)nc32)c1 [Compound 9] | > 6.00 | > 6.00
19 | c1cc(-c2nc(N3CCOCC3)nc3c2ncn3C2CCNCC2)c2cc[nH]c2c1 [Compound 87] | 5.30 to 6.00 | > 6.00
20 | Oc1cccc(-c2nc(N3CCOCC3)nc3c2nc(-c2cccs2)n3C2CCCCO2)c1 (stereo not drawn) [Compound 116] | < 5.30 | < 5.30
21 | COC(=O)c1ccc(Cn2cnc3c(-c4cccc(O)c4)nc(N4CCOCC4)nc32)cc1 [Compound 13] | 5.30 to 6.00 | > 6.00
22 | Oc1cccc(-c2nc(N3CCOCC3)nc3c2ncn3C2CCOC2)c1 (stereo not drawn) [Compound 97] | > 6.00 | > 6.00
23 | CCOC(=O)CCn1cnc2c(-c3ccc4cc[nH]c4c3)nc(N3CCOCC3)nc21 [Compound 25] | 5.30 to 6.00 | 
24 | c1cc(-c2nc(N3CCOCC3)nc3c2ncn3CCC2OCCCO2)c2cc[nH]c2c1 [Compound 70] | 5.30 to 6.00 | > 6.00
25 | CC(c1ccccc1)n1cnc2c(-c3cccc4[nH]ccc34)nc(N3CCOCC3)nc21 (stereo not drawn) [Compound 77] | > 6.00 | < 5.30
26 | Oc1cccc(-c2nc(N3CCOCC3)nc3c2ncn3CCN2CCCC2)c1 [Compound 94, 3-(2-morpholino-9-(2(-pyrrolidin-1-yl)ethyl)-9H-purin-6yl)phenol] | 5.30 to 6.00 | > 6.00
27 | Oc1cccc(-c2nc(N3CCOCC3)nc3[nH]cnc23)c1 [Compound 48] | 5.30 to 6.00 | 

Row | SMILES | pIC50 [1] | pIC50 [2]
28 | Oc1cc(F)cc(-c2nc(N3CCOCC3)nc3c2ncn3Cc2ccccc2)c1 [Compound 3] | > 6.00 | > 6.00
29 | CC(=O)Nc1ccc(Cn2cnc3c(-c4cccc(OC(C)=O)c4)nc(N4CCOCC4)nc32)cc1 [Compound 33] | < 5.30 | > 6.00
30 | CN1CCN(C(=O)Cn2cnc3c(-c4cccc(O)c4)nc(N4CCOCC4)nc32)CC1 [Compound 76] | 5.30 to 6.00 | > 6.00
31 | CC(C)n1cnc2c(-c3cccc4[nH]ccc34)nc(N3CCOCC3)nc21 [Compound 99] | > 6.00 | > 6.00
32 | COc1cccc(Cn2cnc3c(-c4ccc5cc[nH]c5c4)nc(N4CCOCC4)nc32)c1 [Compound 18] | 5.30 to 6.00 | < 5.30
33 | COCCn1cnc2c(-c3cncc(F)c3)nc(N3CCOCC3)nc21 [Compound 140] | < 5.30 | 5.30 to 6.00
34 | Oc1cccc(-c2nc(N3CCOCC3)nc3c2ncn3CC2CCCCC2)c1 [Compound 72] | > 6.00 | 5.30 to 6.00
35 | c1ccc(Cn2cnc3c(-c4ccc5nn[nH]c5c4)nc(N4CCOCC4)nc32)cc1 [Compound 39] | 5.30 to 6.00 | 5.30 to 6.00
36 | CC(C)(C)CC(=O)N1CCC(n2cnc3c(-c4cccc5[nH]ccc45)nc(N4CCOCC4)nc32)CC1 [Compound 96] | > 6.00 | > 6.00
37 | CC(=O)Nc1cccc(-c2nc(N3CCOCC3)nc3c2ncn3-c2ccccc2)c1 [Compound 56] | < 5.30 | < 5.30
38 | CCC(C)n1cnc2c(-c3cccc4[nH]ccc34)nc(N3CCOCC3)nc21 (stereo not drawn) [Compound 69] | > 6.00 | > 6.00
39 | COCC(C)n1cnc2c(-c3cccc(O)c3)nc(N3CCOCC3)nc21 (stereo not drawn) [Compound 68] | > 6.00 | > 6.00
40 | Oc1cccc(-c2nc(N3CCOCC3)nc3c2ncn3C2CCCCO2)c1 (stereo not drawn) [Compound 57] | > 6.00 | > 6.00
41 | Oc1cccc(-c2nc(N3CCOCC3)nc3[nH]c(-c4cccs4)nc23)c1 [Compound 117] | < 5.30 | > 6.00
42 | CCc1nc2c(-c3cccc(O)c3)nc(N3CCOCC3)nc2n1C(C)CC (stereo not drawn) [Compound 112, 3-(9-sec-Butyl-8-ethyl-2-morpholin-4-yl-9H-purin-6-yl)-phenol] | > 6.00 | > 6.00
43 | C=CCCn1cnc2c(-c3ccc4cc[nH]c4c3)nc(N3CCOCC3)nc21 [Compound 23] | 5.30 to 6.00 | < 5.30
44 | CC1CN(c2nc(-c3cccc4[nH]ccc34)c3ncn(CC#N)c3n2)CC(C)O1 (stereo not drawn) [Compound 81] | < 5.30 | < 5.30
45 | c1cc(-c2nc(N3CCOCC3)nc3c2ncn3CC2CCCCC2)c2cc[nH]c2c1 [Compound 73] | 5.30 to 6.00 | > 6.00
46 | CCC(C)n1c(N2CCCC2)nc2c(-c3cccc(O)c3)nc(N3CCOCC3)nc21 (stereo not drawn) [Compound 125] | > 6.00 | > 6.00
47 | COc1cc(Cn2cnc3c(-c4cccc(O)c4)nc(N4CCOCC4)nc32)cc(OC)c1 [Compound 14] | > 6.00 | > 6.00
48 | CCOC(=O)Cn1cnc2c(-c3cccc(O)c3)nc(N3CCOCC3)nc21 [Compound 74, ethyl-2-(6-(3-hydroxyphenyl)-2-morpholino-9H-purin-9-yl)acetate] | > 6.00 | 
49 | Oc1cccc(-c2nc(N3CCOCC3)nc3c2ncn3C2CCNCC2)c1 [Compound 85] | > 6.00 | 
50 | CC(C)C(C)n1cnc2c(-c3cccc(O)c3)nc(N3CCOCC3)nc21 (stereo not drawn) [Compound 100] | > 6.00 | 
51 | CC(C)(C)OC(=O)N1CCC(n2cnc3c(-c4cccc(O)c4)nc(N4CCOCC4)nc32)CC1 [Compound 86] |  | > 6.00
52 | CCOC(=O)CCn1cnc2c(-c3cccc(O)c3)nc(N3CCOCC3)nc21 [Compound 24] | > 6.00 | 
53 | CC(C)(C)OC(=O)N1CCC(n2cnc3c(-c4cccc(O)c4)nc(N4CCOCC4)nc32)CC1 [Compound 71] | > 6.00 | 
